Results published in publication PMC9043997, “LEAP2 reduces postprandial glucose excursions and ad libitum food intake in healthy men” (Cell Reports Medicine, 2022).
Where a SMILES comes first, the peptide text is derived from it. Bridges are numbered along the chain shown (N, C = ends).

Columns and labels:
Assay type in all cases: in vivo, human
healthy men [1] = test: Ad libitum meal test at the end of the infusion period; conditions: healthy men n = 20, iv LEAP2 ~25 pmol/kg/min
Description: The infusion was terminated when participants had finished eating.
Unless otherwise stated, results are presented as mean ± SEM. Baseline values were calculated as a mean of timepoints −35, −10 and 0 min or, when only available −10 and 0 min. Baseline values for the postprandial period were calculated as a mean of timepoint 60 min. Calculations of AUC were based on the trapezoidal rule. AUC values are reported for the period 0 to 255 min. To assess the fasting and postprandial periods separately, AUC values are reported for the periods 0 to 60 min and 60 to 255 min, respectively. Student’s paired t test was used to test for differences in baseline, peak, time to peak, AUC and mean values and ad libitum food intake in men. Indirect calorimetry and thermal imaging data were fitted to a repeated-measures mixed effects model with the intervention and timepoints as independent variables with interaction and Geisser-Greenhouse correction. Šidák’s post hoc test was used to compare LEAP2 to placebo for each timepoint. For analysis of endogenous LEAP2 concentrations in response to a liquid mixed meal test, postprandial data during placebo infusion were fitted to a repeated-measures mixed effects model with time as a fixed effect and the individual participant as a random effect with Geisser-Greenhouse correction. Dunnett’s post hoc test was used to compare endogenous LEAP2 concentrations at each timepoint (75 to 255 min) to the postprandial baseline. Mouse plasma glucose, food intake and insulin data were analyzed by a repeated-measures two-way ANOVA with Šidák’s post hoc test. Statistical analyses were carried out using GraphPad Prism v9.0.0 and v9.1.1 (GraphPad Software, San Diego, California). A two-sided p value < 0.05 was considered statistically significant. The population size calculation was based on data from a previous study investigating the reproducibility of an ad libitum meal in healthy men.[41] Eighteen participants were needed to detect a difference of minimum 500 kJ in ad libitum food intake with a with-in subject difference of 739 kJ, a power of 80% and the above-mentioned significance level. To ensure sufficient power, 20 participants were included.

healthy men [2] = test: Indirect calorimetry and renal urea excretion; conditions: iv LEAP2 ~25 pmol/kg/min
Description: Resting energy expenditure and respiratory quotient were measured by indirect calorimetry (Vyntus CPX Canopy; Vyaire Medical, Höchberg, Germany) for 15 min at timepoints −25 (baseline), 45, 120 and 240 min, with the participants awake and in a supine position from 5 min prior to each test. Participants rested in a hospital bed for 30 min before the first test and throughout the experimental day. The gas and flow analyzers were calibrated before each test. The first 5 min and the last minute of data collection were subsequently discarded, and the mean of a 5-min steady state period defined as a coefficient of variation <10% for VO2 and CO2 was used to estimate resting energy expenditure and respiratory quotient for each test. The 5-min steady state period with the lowest resting energy expenditure and with a respiratory quotient between 0.7 and 1.0 was considered. In a few cases without a 5-min steady state period, a 4-min steady state period was considered.[35]^,[36] In the present study, a steady state period of 5 min was successfully reached in […] out of 160 tests. One participant was excluded from the subsequent data analysis due to no steady state period in any of the four tests during an experimental day. A 4-min steady state period was considered in six cases reaching a total of 23 excluded tests from the data analysis.
To assess the amount of protein breakdown after the liquid mixed meal, urine samples were collected at timepoints 135 and 255 min for measurement of renal urea excretion and total urine production. At timepoint 60 min, 5 min prior to ingestion of the liquid mixed meal, participants were asked to empty their urinary bladder.

[3] = Pharmacokinetic parameters of exogenous LEAP2 in healthy men (one-compartment model)
Description: Eight healthy men, recruited among participants in the placebo-controlled, crossover study, were included in an additional clinical study investigating the kinetic parameters of exogenous LEAP2. Each participant underwent a single experimental day with intravenous infusion of LEAP2 (10 min at a rate of ∼101 pmol/kg/min followed by 110 min at ∼25 pmol/kg/min) (see Figure S1B for an overview of the clinical study design). […] Fasting schedule for participants and all instructions from 48 h prior to the experimental day were similar to the placebo-controlled, crossover study. […] LEAP2 infusion was started at timepoint 0 min and discontinued after 120 min. Blood samples were drawn every 15 min from timepoint −30 to 270 min and, additionally, at timepoints 118, 122, 124, 127 and 130 min. Plasma glucose was measured bedside every 15 min from timepoint −30 to 180 min and every 30 min from timepoint 180 to 270 min with a mean concentration of 4.85 ± 0.02 mmol/L. For analytical procedures related to plasma glucose and LEAP2 concentrations, please see the section “Human plasma analyses”. Every 30 min from time −30 to 270 min, participants rated appetite-related sensations on 100 mm VAS[34] with a score (median (interquartile range)) for hunger of 72 (59–79) mm, prospective food consumption 73 (65–82) mm, satiety 22 (14–33) mm, fullness 21 (12–31) mm, comfort 78 (72–90) mm, thirst 78 (71–89) mm and nausea 3.0 (0–9.0).
We constructed and applied a pharmacokinetic model to the data using the software Monolix (Monolix version 2019R1; Lixoft SAS, Antony, France). The parameters were estimated using the Stochastic Approximation EM algorithm.[22] The one-compartment model assumed input from both endogenous LEAP2 secretion and the exogenous LEAP2 infusion assuming that LEAP2 kinetics followed a single-exponential elimination. We assumed that the endogenous production of LEAP2 was constant i.e. not suppressed during infusion of exogenous LEAP2. This model probably represents a simplification of the actual physiological LEAP2 kinetics, but the data fitted well to model predictions.

## CC[C@H](C)[C@@H]1NC(=O)[C@@H]2CSSC[C@@H](C(=O)N[C@@H](CO)C(=O)N[C@@H](CC(C)C)C(=O)N[C@@H](CO)C(=O)N[C@H](C(=O)N[C@@H](C)C(=O)N[C@@H](CCC(N)=O)C(=O)N[C@@H](CCC(=O)O)C(=O)O)C(C)C)NC(=O)[C@H](CCCNC(=N)N)NC(=O)[C@H](CCCNC(=N)N)NC(=O)[C@H](CCCCN)NC(=O)[C@H](CCCNC(=N)N)NC(=O)[C@H](CSSC[C@H](NC(=O)[C@H](CO)NC(=O)[C@H](C)NC(=O)CNC(=O)[C@@H](NC(=O)[C@@H]3CCCN3C(=O)[C@H](CCCNC(=N)N)NC(=O)[C@H](CC(C)C)NC(=O)[C@H](CO)NC(=O)[C@@H](NC(=O)CNC(=O)[C@H](CCCNC(=N)N)NC(=O)[C@H](Cc3c[nH]c4ccccc34)NC(=O)[C@H](Cc3ccccc3)NC(=O)[C@@H]3CCCN3C(=O)[C@@H](NC(=O)[C@@H](N)CCSC)[C@@H](C)O)C(C)C)[C@@H](C)CC)C(=O)N[C@@H](CCCNC(=N)N)C(=O)N[C@@H](CC(=O)O)C(=O)N[C@@H](CC(=O)O)C(=O)N[C@@H](CO)C(=O)N[C@@H](CCC(=O)O)C(=O)N2)NC(=O)[C@H](CC(C)C)NC(=O)[C@H](CCCNC(=N)N)NC(=O)[C@H]([C@@H](C)O)NC1=O [LEAP2, liver-expressed antimicrobial peptide 2] (H-MTPFWRGVSLRPIGASCRDDSECITRLCRKRRCSLSVAQE-OH; disulfide 17-28, 23-33 (inferred); N-terminus and C-terminus assumed)
Healthy men [1]; 95% CI, p = 0.0029
  mean difference in ad libitum food intake per kg body weight (placebo vs LEAP2): 5.4 kJ/kg
Healthy men [1]; 95% CI, p = 0.0041
  mean difference in total ad libitum food intake (placebo vs LEAP2): 432 kJ
Healthy men [1]; 95% CI, p = 0.0303
  mean difference in duration of the ad libitum meal (placebo vs LEAP2): 1.5 min
Healthy men [1]; pasta Bolognese served 260 min after start of infusion
  reduction in energy intake during ad libitum meal compared with placebo: ~12%
Healthy men [2]; indirect calorimetry
  resting energy expenditure, LEAP2 vs placebo: no differences
Healthy men [2]; indirect calorimetry, data not shown
  respiratory quotient, LEAP2 vs placebo: no differences
Healthy men [2]; two consecutive time points (135 and 255 min) or total, data not shown
  renal urea excretion, LEAP2 vs placebo: no difference
[3]; healthy men n = 8, iv 10 min at ~101 pmol/kg/min then 110 min at ~25 pmol/kg/min, plasma, radioimmunoassay, one-compartment model (Monolix)
  half-life of LEAP2: ~9 min
[3]; healthy men n = 8, one-compartment model assuming constant endogenous production
  endogenous production rate of LEAP2: 1.9 ± 0.14 nmol/min
[3]; male, human, plasma, healthy men n = 8, iv 10 min at ~101 pmol/kg/min then 110 min at ~25 pmol/kg/min, 150-min wash-out, one-compartment model (Monolix), read-out: volume of distribution of LEAP2
  Vd: 14 ± 5.3 L
[3]; male, human, plasma, healthy men n = 8, iv 10 min at ~101 pmol/kg/min then 110 min at ~25 pmol/kg/min, one-compartment model (Monolix), read-out: metabolic clearance rate of LEAP2
  clearance: 860 ± 170 mL/min
[3]; male, human, healthy men n = 8, iv 10 min at ~101 pmol/kg/min then 110 min at ~25 pmol/kg/min, plasma, radioimmunoassay, one-compartment model (Monolix)
  half-life: 9.1 ± 2.5 min
